For assay [1], the target named is T1, bovine progesterone receptor (Bos taurus, UniProt F1N712).
T1 construct: uterus tissue as the source of progesterone receptor; tissue CEREP Progesterone receptor-814; host or cells: bovine uterus tissue (the cited method, Hurd & Moudgil 1988, used calf uterus)
T1 sequence (F1N712 1-914): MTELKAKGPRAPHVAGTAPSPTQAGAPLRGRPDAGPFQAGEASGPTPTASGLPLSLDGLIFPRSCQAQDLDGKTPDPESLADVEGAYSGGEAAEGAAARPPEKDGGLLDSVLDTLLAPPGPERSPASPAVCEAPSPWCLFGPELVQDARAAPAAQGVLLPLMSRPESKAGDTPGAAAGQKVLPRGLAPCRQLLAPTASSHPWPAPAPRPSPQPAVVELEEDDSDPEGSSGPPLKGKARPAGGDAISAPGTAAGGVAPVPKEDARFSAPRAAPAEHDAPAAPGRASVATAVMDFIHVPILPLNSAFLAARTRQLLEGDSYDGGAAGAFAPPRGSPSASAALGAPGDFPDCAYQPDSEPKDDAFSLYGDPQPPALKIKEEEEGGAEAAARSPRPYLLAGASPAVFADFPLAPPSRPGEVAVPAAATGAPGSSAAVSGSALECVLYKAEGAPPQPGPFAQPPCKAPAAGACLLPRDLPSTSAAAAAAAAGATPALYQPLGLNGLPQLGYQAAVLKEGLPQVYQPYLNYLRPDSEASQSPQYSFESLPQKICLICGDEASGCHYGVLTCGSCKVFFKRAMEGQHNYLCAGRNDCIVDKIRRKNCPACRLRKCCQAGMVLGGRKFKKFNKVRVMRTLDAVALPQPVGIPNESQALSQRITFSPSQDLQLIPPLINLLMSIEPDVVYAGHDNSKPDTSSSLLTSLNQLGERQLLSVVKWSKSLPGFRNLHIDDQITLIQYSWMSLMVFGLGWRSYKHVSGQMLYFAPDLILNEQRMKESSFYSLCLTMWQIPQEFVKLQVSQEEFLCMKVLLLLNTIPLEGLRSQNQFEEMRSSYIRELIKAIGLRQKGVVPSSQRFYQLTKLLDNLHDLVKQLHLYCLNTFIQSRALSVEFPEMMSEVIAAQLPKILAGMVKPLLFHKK
Put plainly: Progesterone receptor binding assay (CEREP, 3H-R5020 ligand, uterus tissue). To be noted: bovine PR; 3H-R5020 as ligand, uterus tissue as receptor source; read-out: Progesterone Receptor binding (pKi) (converted). As to the method: The progesterone receptor (PR) binding assays were performed at CEREP (Celle I'Evescault, France). The binding to the bovine progesterone receptor (Assay Cat No: Progesterone receptor-814) was measured using 3H-R5020 as ligand and uterus tissue as the source of progesterone receptor. The assay was performed as described by Hurd & Moudgil [1988]. […] The results of the receptor binding assay are presented as the individual pKi values for the bovine PR which were determined by measuring the binding activity for a concentration range of each compound.

In assay [2] the test system is progesterone receptor (alkaline phosphatase expression in T47D human breast carcinoma cells). Put plainly: Progesterone-dependent alkaline phosphatase expression assay (AP assay), agonistic and antagonistic mode. The following applies: for inhibition at 0.1 µM: 100 nM compound, inhibition of alkaline phosphatase induction by 1 nM Dydrogesterone, read-out: PI [100 nM] (% inhibition); for activation at 0.1 µM: 48 h, 100 nM compound alone, alkaline phosphatase induction, 100% = 1 nM Dydrogesterone, read-out: PS [100 nM] (% stimulation); for EC50: agonistic potency; for IC50: antagonistic potency against 1 nM Dydrogesterone. Type of assay: cell-based. As to the method:
The progesterone-dependent modulation of alkaline phosphatase expression was examined using T47D human breast carcinoma cells [Keydar et al., 1979]. The assay was performed as previously described by Di Lorenzo et al. (1991) with the modification of using Dydrogesterone as comparative progestin to determine the antagonistic and agonistic activity.
The cell line was purchased from CLS Cell Lines Service (Hildastrasse 21, D-69214 Eppelheim, Germany).
In brief, the cells were plated in 96-well plates at 40,000 cells/well using the following growth medium: RPMI 1640 with: 10% FBS, 1 mM Sodium Pyruvat MEM, 10 mM Hepes, 0.01 mg/ml Bovine insulin, and 25 μg/ml Gentamycin. After 24 h of cultivation, the growth medium was replaced with medium containing 2% fetal bovine serum and the test compounds were added to each well to achieve the appropriate compound concentration: For determination of agonistic activity only the test compounds were added; for measurement of antagonistic activity the test compounds and additionally Dydrogesterone as standard progesterone agonist was added to a final concentration of 1 nM. After 48 h of cultivation, the medium was removed and the cells were washed with 200 μl of Dulbecco's phosphate-buffered saline without calcium and magnesium (PBS(−)).
Then the cells were fixed with 3.7% formaldehyde in phosphate-buffered saline for 15 min at 22° C. After washing the cells with PBS, 100 μl of a […] (pNPP) solution (pNPP Liquid Substrate System; Sigma) was added to each well and incubated for 2 h at room temperature protected from light. The reaction was stopped with 100 μl 1N NaOH and the absorbance was measured with a spectrophotometer (Victor, Perkin Elmer) at 405 nm.
The results are expressed as alkaline phosphatase induction (as 100% with 1 nM Dydrogesterone) or inhibition (against alkaline phosphatase induction by 1 nM Dydrogesterone) at a certain concentration of test compound.
Calculations: % stimulation=(effect compound−basal)/(effect dydro 1 nM−basal)*100 % inhibition of 1 nM Dydro=100*{1−[(effect compound·basal)/(effect dydro 1 nM·basal)]}
For each compound the % inhibition (PI) and % stimulation (PS), respectively, at a compound concentration of 100 nM was determined. For selected compounds, the corresponding values were measured for several different concentrations, and subsequently were plotted against the concentration of the test compound, and used to calculate the IC50 value (for the antagonistic potency; the IC50 value is the concentration (nM), required to reduce the maximal response by 50%) and EC50 values (for the agonistic potency; the EC50 value is the effective concentration (nM) that produced 50% of the maximum response), respectively.

A further assay deals with cycling guinea pigs. The assay can be described thus: Guinea pig model (luteolysis and uterine PR expression in cycling guinea pigs). Type of assay: in vivo. To be noted: 10mg/kg s.c. once daily on days 10-17 of the cycle; FIG. 1. The text has this: An assay how to assess the progesterone antagonists (PAs) and progesterone receptor modulators (PRMs) with respect to PR agonistic and antagonistic activities in vivo is described by Elger et al [2000] and within WO 04/014935 using cycling guinea pigs. In this assay, pure PR antagonists inhibit luteolysis at the end of the ovarian cycle, whereas PR agonist and SPRMs support luteolysis, i.e. this is a very sensitive in vivo method to reveal residual agonistic activity of SPRMs. Inhibition of luteolysis is reflected by elevated serum progesterone levels at day 10-17 and inhibition of uterine prostaglandin F2α, as well as by certain histological characteristics in uterus and ovary, such as increased expression of progesterone receptors and decreased glandular differentiation in the uterus, as well as persistence of large intact corpora lutea up to day 18.
Adult female guinea pigs (strain Dunkin Hartley, Crl:HA; body weight 500-700 g) are purchased from Charles River (Sulzfeld, Germany). Blood samples are drawn from the Vena saphena three times a week to monitor ovarian cycles by determination of progesterone levels. […]
Antiluteolytic activity is evaluated by assessment of serum progesterone profiles throughout the treatment period from day 10 to day 17 (FIG. 1).
Antiprogestational effects on the uterus are assessed by determination of the degree of PR expression. […]

Data on eleven molecules can be found in US20070082876A1, “Novel C18 modified retrosteroids as progesterone receptor modulator compounds” (Solvay Pharmaceuticals GmbH, priority 2005, published 2007).

Molecules are shown by their SMILES.

Regarding `CCNC(=O)O/N=C/c1ccc(CCC[C@]23CC[C@@H]4[C@@H](C=CC5=CC(=O)CC[C@]54C)[C@@H]2CC[C@]3(OC(=O)OCC)C(C)=O)cc1` [No. 6], in assay [1], the Ki was 501 nM. Moreover, in assay [2], the inhibition at 0.1 µM worked out at 32%, the activation at 0.1 µM worked out at 60% and the EC50 is 50.1 nM.
For `CC(=O)[C@H]1CC[C@H]2[C@@H]3C=CC4=CC(=O)CC[C@@]4(C)[C@@H]3CC[C@]12CCCc1ccc(/C=N/O)cc1` [No. 2], the Ki in assay [1] is 200 nM. In addition, in assay [2], the inhibition at 0.1 µM is 77%, the activation at 0.1 µM was determined as 10% and the half-maximal inhibitory concentration (IC50) was 20 nM.
On to `COc1cccc(CCC[C@]23CC[C@@H]4[C@@H](C=CC5=CC(=O)CC[C@]54C)[C@@H]2CC[C@@H]3C(C)=O)c1` [compound 25], for which, in assay [2], the inhibition at 0.1 µM amounted to 73%, the activation at 0.1 µM is 12% and the response was half-maximal at 15.8 nM (EC50).
`CC#C[C@]1(O)CC[C@H]2[C@@H]3CCC4=CC(=O)CCC4=C3[C@@H](c3ccc(N(C)C)cc3)C[C@@]21C` [mifepristone]: the “antiluteolytic activity (serum progesterone levels day 10 to day 17)” value with cycling guinea pigs is given as “do not decline”.
In the case of `CCNC(=O)O/N=C/c1ccc(CCC[C@]23CC[C@@H]4[C@@H](CCC5=CC(=O)CC[C@]54C)[C@@H]2CC[C@@H]3C(C)=O)cc1` [No. 4], the Ki in assay [1] was 501 nM. Further, in assay [2], the inhibition at 0.1 µM worked out at 51%, the activation at 0.1 µM amounted to 4% and the half-maximal inhibitory concentration (IC50) was 50.1 nM.
On the same counts, the results for `CC(=O)[C@H]1CC[C@H]2[C@@H]3CCC4=CC(=O)CC[C@@]4(C)[C@@H]3CC[C@]12CCCc1ccc(/C=N/O)cc1` [No. 1] are 1000 nM, 60%, 1% and 31.6 nM.
With `COc1cc(CCC[C@]23CC[C@@H]4[C@@H](C=CC5=CC(=O)CC[C@]54C)[C@@H]2CC[C@@H]3C(C)=O)cc(OC)c1` [compound 29], in assay [2], the inhibition at 0.1 µM came to 69%, the activation at 0.1 µM amounted to 15% and a half-maximal effect (EC50) was put at 15.8 nM.
Regarding `CC(=O)[C@H]1CC[C@H]2[C@@H]3C=CC4=CC(=O)CC[C@@]4(C)[C@@H]3CC[C@]12C` [dydrogesterone, (9β,10α)-Pregna-4,6-diene-3,20-dione], the “antiluteolytic activity (serum progesterone levels day 10 to day 17)” value in the assay on cycling guinea pigs is listed as “progesterone levels decrease”.
With `CCNC(=O)O/N=C/c1ccc(CCC[C@]23CC[C@@H]4[C@@H](C=CC5=CC(=O)CC[C@]54C)[C@@H]2CC[C@@H]3C(C)=O)cc1` [No. 5], in assay [1], the Ki was 200 nM. Further, in assay [2], the inhibition at 0.1 µM came to 52%, the activation at 0.1 µM was determined as 35% and the IC50 is 5.01 nM.
The like results for `CC(=O)[C@H]1CC[C@H]2[C@@H]3C=CC4=CC(=O)CC[C@@]4(C)[C@@H]3CC[C@]12CCCc1ccc(C(N)=O)cc1` [No. 13] were, in that order, 200 nM, 79%, 7% and 50.1 nM.
With `CC(=O)[C@H]1CC[C@H]2[C@@H]3C=CC4=CC(=O)CC[C@@]4(C)[C@@H]3CC[C@]12CCCc1ccccc1` [compound 17], in assay [2], the inhibition at 0.1 µM was 79%, the activation at 0.1 µM stood at 8% and the EC50 was 25.1 nM.

Usually inhibition stands for how much of the control response was suppressed. As a reminder, the EC50 is the midpoint of the concentration-response curve. A word on the IC50: it is the point on the concentration scale where inhibition reaches its midpoint. Read a low IC50 as greater potency.
